{"source": "patent US11753409B2", "about": "“Crystalline salts of a B-RAF kinase inhibitor” (Xynomic Pharmaceuticals, Inc., priority 2017, dated 2023)", "origin": "cited, not measured here", "key": {"[1]": {"system": "B-RAF-mutant melanomas and colorectal carcinomas", "details": "cited from earlier work"}, "wild-type cells": {"system": "wild-type cells", "details": "at 1,000 nmol/L; cited from earlier work"}, "A375 melanoma": {"system": "A375 melanoma", "details": "particularly in combination with trametinib; cited from earlier work"}, "[2]": {"details": "treated mice; cited from earlier work"}, "[3]": {"details": "rats, up to 60 mg/kg daily for 2 weeks; cited from earlier work"}, "[4]": {"system": "human B-RAF-mutant melanoma cells", "details": "cited from earlier work"}}}
{"smiles": "CCCS(=O)(=O)Nc1ccc(F)c(-n2cc(-c3cncnc3)c3nc(N(C)C4CCN(CC)CC4)ccc32)c1F", "note": "[BI 882370, N-(3-(5-((1-ethylpiperidin-4-yl)(methyl)amino)-3-(pyrimidin-5-yl)-1H-pyrrolo[3,2-b]pyridin-1-yl)-2,4-difluorophenyl)propane-1-sulfonamide]", "values": [{"measurement": "Efficacy compared with vemurafenib, dabrafenib, or trametinib", "setting": "[1]; 25 mg/kg twice daily, oral", "value": "superior efficacy"}, {"measurement": "Efficacy in mouse models", "setting": "[1]; solution administered orally", "value": "efficacious"}, {"measurement": "Effect on wild-type cells", "setting": "wild-type cells", "value": "not affected"}, {"measurement": "Activity in vemurafenib-resistant model", "setting": "A375 melanoma", "value": "active"}, {"measurement": "Body weight loss or clinical signs of intolerability", "setting": "[2]", "value": "did not show any body weight loss or clinical signs of intolerability"}, {"measurement": "Pathologic changes in several major organs, including skin", "setting": "[2]", "value": "no pathologic changes were observed"}, {"measurement": "Toxicity (clinical chemistry, hematology, pathology, toxicogenomics)", "setting": "[3]", "value": "lacked toxicity"}, {"measurement": "Potency, inhibition of proliferation", "setting": "[4]", "value": "1 to 10", "unit": "nM"}, {"measurement": "Potency relative to vemurafenib", "setting": "[4]; higher potency than vemurafenib", "value": 100, "unit": "times"}]}
